Data from the Kinase Knowledgebase extract (Sharma et al. 2016).
Blank lines part the entries; values can stand above or below the molecule they belong to.

Target: EGFR (UniProt P00533)
Test: Inhibition of EGFR Kinase Activity

EGFR, sequence (P00533 whole entry, looked up): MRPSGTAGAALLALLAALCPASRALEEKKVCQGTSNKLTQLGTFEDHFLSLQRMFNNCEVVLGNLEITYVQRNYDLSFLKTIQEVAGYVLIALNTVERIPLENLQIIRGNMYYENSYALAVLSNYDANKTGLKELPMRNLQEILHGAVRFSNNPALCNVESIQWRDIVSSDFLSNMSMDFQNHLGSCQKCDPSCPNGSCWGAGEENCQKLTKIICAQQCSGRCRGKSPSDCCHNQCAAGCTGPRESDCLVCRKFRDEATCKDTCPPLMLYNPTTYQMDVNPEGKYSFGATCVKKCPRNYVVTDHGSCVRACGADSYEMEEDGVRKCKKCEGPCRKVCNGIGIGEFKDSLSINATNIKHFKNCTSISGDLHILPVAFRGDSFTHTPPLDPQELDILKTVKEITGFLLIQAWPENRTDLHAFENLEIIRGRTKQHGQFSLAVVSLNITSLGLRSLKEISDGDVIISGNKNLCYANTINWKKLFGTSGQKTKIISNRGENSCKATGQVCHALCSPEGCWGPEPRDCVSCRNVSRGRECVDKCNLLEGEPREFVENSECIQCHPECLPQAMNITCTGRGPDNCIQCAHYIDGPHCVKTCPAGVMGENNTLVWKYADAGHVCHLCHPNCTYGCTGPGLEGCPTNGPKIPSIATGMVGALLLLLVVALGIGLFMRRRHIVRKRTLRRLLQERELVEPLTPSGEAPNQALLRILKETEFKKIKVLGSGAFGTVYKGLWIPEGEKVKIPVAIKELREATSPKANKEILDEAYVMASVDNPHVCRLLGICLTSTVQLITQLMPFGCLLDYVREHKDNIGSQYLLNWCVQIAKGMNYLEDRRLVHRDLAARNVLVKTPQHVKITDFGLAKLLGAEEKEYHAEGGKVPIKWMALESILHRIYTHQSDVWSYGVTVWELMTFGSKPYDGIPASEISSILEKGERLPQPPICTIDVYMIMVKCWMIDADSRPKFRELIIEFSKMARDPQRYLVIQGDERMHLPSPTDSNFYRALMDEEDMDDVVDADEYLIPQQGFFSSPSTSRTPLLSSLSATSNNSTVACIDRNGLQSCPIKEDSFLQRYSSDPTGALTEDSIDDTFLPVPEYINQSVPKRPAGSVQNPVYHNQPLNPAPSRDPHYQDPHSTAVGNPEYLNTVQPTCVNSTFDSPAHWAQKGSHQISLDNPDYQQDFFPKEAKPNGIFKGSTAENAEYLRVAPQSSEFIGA

Structure (SMILES): CCC1c2cnc(Nc3ccccc3)nc2N(c2ccccc2)C(=O)N1c1ccc(OC)cc1 (configuration not stated)
IC50: < 10 µM

Structure (SMILES): COc1ccc(N2C(=O)N(c3ccccc3)c3nc(Nc4ccccc4)ncc3C2C)cc1 (configuration not stated)
IC50: < 10 µM

Structure (SMILES): COc1ccc(N2C(=O)N([C@H](C)CO)c3nc(Nc4ccccc4)ncc3[C@H]2C)cc1
IC50: < 10 µM

Structure (SMILES): COc1ccc(N2C(=O)N(c3ccccc3)c3nc(N(C(C)=O)c4ccccc4)ncc3C2C)cc1 (configuration not stated)
IC50: < 10 µM

Structure (SMILES): COc1ccc(N2C(=O)N([C@H](C)CO)c3nc(Nc4ccccc4)ncc3[C@@H]2C)cc1
IC50: < 10 µM

Structure (SMILES): COc1ccc(N2C(=O)N(c3cccc(C(N)=O)c3)c3nc(Nc4ccccc4)ncc3C2C)cc1 (configuration not stated)
IC50: < 10 µM

Structure (SMILES): COc1ccc(N2C(=O)N(c3ccccc3)c3nc(Nc4ccccc4)ncc3C2C)c(F)c1 (configuration not stated)
IC50: < 10 µM

Structure (SMILES): COc1ccc(N2C(=O)N(c3cccc(C#N)c3)c3nc(Nc4ccccc4)ncc3C2C)c(F)c1 (configuration not stated)
IC50: < 10 µM

Structure (SMILES): COc1ccc(N2C(=O)N(c3cccc(C#N)c3)c3nc(Nc4ccccc4)ncc3C2C)cc1 (configuration not stated)
IC50: < 10 µM

Structure (SMILES): COc1ccc(N2C(=O)N(c3ccc(OC)cc3)C(C)c3cnc(Nc4ccccc4)nc32)cc1 (configuration not stated)
IC50: < 10 µM

Structure (SMILES): COc1ccc(N2C(=O)N(c3ccccc3)c3nc(Nc4ccccc4)ncc3C2C(C)C)cc1 (configuration not stated)
IC50: < 10 µM

Structure (SMILES): COc1ccc(Cl)c(N2C(=O)N(c3ccccc3)c3nc(Nc4ccccc4)ncc3C2C)c1 (configuration not stated)
IC50: < 10 µM

The remaining lines, values ahead:

IC50: < 10 µM
Structure (SMILES): COc1ccc(N2C(=O)N(c3ccccc3)c3nc(Nc4ccccc4)ncc3[C@H]2C)cc1

IC50: < 10 µM
Structure (SMILES): COc1ccc(N2C(=O)N([C@@H](C)c3ccccc3)c3nc(Nc4ccccc4)ncc3C2C)cc1 (some centres not stated)

IC50: < 10 µM
Structure (SMILES): COc1ccc(N2C(=O)N(c3ccccc3)c3nc(Nc4ccccc4)ncc3[C@@H]2C)cc1

IC50: < 10 µM
Structure (SMILES): COc1ccc(N2C(=O)N(c3cccc(C(N)=O)c3)c3nc(Nc4ccccc4)ncc3C2C)c(F)c1 (configuration not stated)

IC50: < 10 µM
Structure (SMILES): COc1ccc(N2C(=O)N([C@H]3CC[C@H](O)CC3)c3nc(Nc4ccccc4)ncc3C2C)cc1 (some centres not stated)
